Measurements as given in PMC11847541, “Liver fatty acid binding protein FABP1 transfers substrates to cytochrome P450 4A11 for catalysis” (The Journal of Biological Chemistry, 2025).
Read-outs that look alike come from different tables or passages of the source.

Experiments:
P450 4A11 [1] = system: P450 4A11; parameters: species or system human
Source text: To predict the potential effects of FABP1 on P450 4A11 catalysis, we programmed two computational models in KinTek Explorer to reflect those presented in Figure 2 (i.e., free ligand model versus direct transfer model). The models were equipped with the rate constants and/or Kd values estimated for either palmitate or DAUDA (where applicable) and for protein–protein binding, which are summarized in Table 2. As is indicated in Table 2, certain rate constants necessary for the modeling are estimated based on a known Kd value and an individual known rate constant. To predict the kinetic result of the free ligand model, the rate(s) of transfer (k6, k-6) were set to a value of zero, reflecting the predicted inability of the two proteins to interact. The interaction of P450 and FABP1 occurs in the absence of substrate, although whether the P450–FABP1 (EF) complex can accept a substrate (to form EFS) is unknown. The modeling software estimated a 1 µM Kd value for the interaction with the assumption that the complex could not accept a cytosolic substrate. To predict the kinetic result of the direct transfer model, our experimentally estimated rates of transfer were allowed to be fit by the model. Aside from the manipulations with the transfer rate, all remaining rate constants were input as they appear in Table 2.
When provided the experimental conditions for the kinetic assays in Figure 12, the free ligand model predicted that the rate of P450 catalysis decreases rapidly as the concentration of FABP1 approaches the concentration of substrate in the experiment (Fig. 12A, blue line), which is intuitive (given the difference in palmitate binding affinities; Table 1, Table 2 and 2). Provided the same conditions, the direct transfer model predicted a slight attenuation of P450 activity (as the concentration of FABP1 approaches the total concentration of substrate (S)), which yielded an excellent fit to our experimental data when a rate of P450 catalysis of 0.11 s^−1 was used (Fig. 12A, red line). […] In a separate experiment, the free ligand model similarly predicted that P450 activity would not be observed when the concentration of substrate was below the concentration of FABP1 (Fig. 12B, blue line). The direct transfer model predicted a hyperbolic product distribution (for [S] < [FABP1]) and gave a satisfactory fit to the experimental data when the same rates of ES^′→ES described earlier were used, but the rate of P450 catalysis was reduced 20-fold (to 0.005 s^−1) (Fig. 12B, red line).
Data were imported into KinTek Explorer software (version 11.01; KinTek, https://kintekcorp.com/software) ([76]) as Excel txt files and processed using an Apple computer (operating system 11.6.2, Apple). The kinetic modeling of a binding titration of FABP1 with palmitate (Fig. S13) as well as the txt files used for all kinetic modeling are provided in the Supporting Information.

P450 4A11 [2] = target: T1, P450 4A11 (Homo sapiens, UniProt Q02928); format: binding; parameters: made in house; host or cells: E. coli; settings: for substrate transfer rate from FABP1 to P450 4A11: FABP1, DAUDA, palmitate 0.2 μM each, P450 4A11 2 μM
T1 sequence (Q02928 5-519): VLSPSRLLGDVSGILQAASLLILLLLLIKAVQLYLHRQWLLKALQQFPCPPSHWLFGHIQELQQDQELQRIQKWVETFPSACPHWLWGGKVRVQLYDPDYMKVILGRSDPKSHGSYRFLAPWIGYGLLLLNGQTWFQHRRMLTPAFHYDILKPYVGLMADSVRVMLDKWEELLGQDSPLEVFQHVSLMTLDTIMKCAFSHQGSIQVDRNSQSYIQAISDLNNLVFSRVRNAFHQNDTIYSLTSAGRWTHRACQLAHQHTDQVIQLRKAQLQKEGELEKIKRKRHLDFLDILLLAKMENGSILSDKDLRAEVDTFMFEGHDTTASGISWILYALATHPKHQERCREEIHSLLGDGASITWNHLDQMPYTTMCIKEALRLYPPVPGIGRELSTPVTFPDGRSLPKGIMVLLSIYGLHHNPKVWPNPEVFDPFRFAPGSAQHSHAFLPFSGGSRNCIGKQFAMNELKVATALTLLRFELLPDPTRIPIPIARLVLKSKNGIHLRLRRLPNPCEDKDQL
Method: Set up as a reverse experiment of the fluorescence displacement assay (Fig. 5), this experiment involved mixing equimolar concentrations (0.2 μM) of DAUDA, FABP1, and palmitate to form a solution ( FDS↔FD+S↔FS+D ) with low fluorescence (Fig. 5A). That solution was then rapidly mixed with an excess of P450 4A11 (2 μM), and the gain of fluorescence was monitored (i.e., as substrate was transferred from FABP1 to P450, either as FDS + P450 → FD + P450-S or as FS + P450 + D → P450-S + F + D → FD; Fig. 5A). As expected, we observed a weak but reproducible stimulation of fluorescence in this experiment (n = 6 shots), and the data were fit to single exponential equation yielding a substrate transfer rate (k6) of 4.2 ± 0.9 s^−1 (Fig. 11).
Figure 11 Rate of palmitate transfer (ktransfer) from FABP1 to P450 4A11. A stoichiometric mixture of FABP1, DAUDA, and palmitate (0.2 μM) was mixed with P450 4A11 (2 μM), and the gain of fluorescence (>420 nm) was monitored (i.e., as FDS + E → FD + ES, Fig. 5A). Six traces were averaged and fit to a single exponential equation, yielding a rate of 4.2 ± 0.9 s^−1. […] replicate experiments were averaged to generate the trace. DAUDA, 11-dansylaminoundecanoic acid; FABP1, fatty acid binding protein.
To estimate the rate of transfer of palmitate from FABP1 to P450 4A11, a mixture of palmitate, FABP1, and DAUDA (0.4 μM, each component) was mixed against a solution of P450 4A11 (4 μM). All components were diluted twofold to their final concentrations in the mixing process. The experiment was performed with stopped-flow parameters identical to the experiments of FABP1 with lipids (aforementioned), and data were processed in the same manner, with the exception that a smoothing factor of 0.4 was applied to the data (in Microsoft Excel) prior to curve fitting.

Compound	Kd (P450 4A11 [1]) [µM]	rate of transfer to P450 4A11 relative to transfer to phospholipid membranes (P450 4A11 [2]) [fold]	substrate transfer rate from FABP1 to P450 4A11 (P450 4A11 [2]) [s⁻¹]	reduction of rate of P450 catalysis, Fig. 12B vs Fig. 12A model (P450 4A11 [1]) [fold]	forward rate of ES′→ES conformational transition (P450 4A11 [1]; direct transfer model) [s⁻¹]	reverse rate of ES′→ES conformational transition (P450 4A11 [1]; direct transfer model) [s⁻¹]	rate of P450 catalysis used in direct transfer model (P450 4A11 [1]; fit to Fig. 12A (FABP1 varied, palmitate 5 μM)) [s⁻¹]	rate of P450 catalysis used in direct transfer model (P450 4A11 [1]; fit to Fig. 12B (palmitate varied, FABP1 5 μM)) [s⁻¹]
FABP1: delipidated recombinant liver fatty acid binding protein with C-terminal hexahistidine tag	1	~1000	~5	–	–	–	–	–
CCCCCCCCCCCCCCCC(=O)O [Palmitate (C16), palmitate]	–	–	4.2 ± 0.9	20	0.086	0.013	0.11	0.005
